Literature values in patent publication US20060147566A1, “Use of physiologically active fatty acids” (priority 2004, published 2006).

System: pruritus
Conditions: known from clinical studies; acyl salicylate prior art

## CC(=O)Oc1ccccc1C(=O)O [aspirin]
  significance for the treatment of pruritus: about 50%
